Results reported in ChEMBL document CHEMBL5338753, “Stapled Peptides as Direct Inhibitors of Nrf2-sMAF Transcription Factors” (J Med Chem, 2023).
Active and inactive are the calls of the source. The rule behind the calls is not given here. Positions of bridges follow the written chain, without caps; N, C: chain ends. Non-standard residues stand in square brackets, D forms with d. Residues, ends and D or L forms follow the SMILES beside them. R5 = C=CCCC[C@@](C)(N)C(=O)O

Key:
A549 [1] = assay: Antiproliferative activity against human A549 cells assessed as cell death at 6.25 uM incubated for 72 hrs by MTT assay relative to control; format: functional
A549 [2] = assay: Synergistic antiproliferative activity against human A549 cells assessed as cell death at 50 uM incubated for 72 hrs in presence of 6 uM cisplatin by MTT assay (reference value: 46%); format: functional
A549 [3] = assay: Synergistic antiproliferative activity against human A549 cells assessed as cell death at 25 uM incubated for 72 hrs in presence of 6 uM cisplatin by MTT assay (reference value: 46%); format: functional
A549 [4] = assay: Downregulation of ABCC1 mRNA level in human A549 cells at 50 uM incubated for 72 hrs by qPCR assay; format: functional, cell-based
HEK-293T = assay: Cytotoxicity against HEK-293T cells assessed as reduction in cell viability; format: toxicity, cell-based; conditions: human
A549 [5] = assay: Antiproliferative activity against human A549 cells assessed as cell death at 25 uM incubated for 72 hrs by MTT assay relative to control; format: functional
A549 [6] = assay: Antiproliferative activity against human A549 cells assessed as cell death at 50 uM incubated for 72 hrs by MTT assay relative to control; format: functional
NRF2-MAFG (Homo sapiens) = NRF2-MAFG (Homo sapiens) (UniProt Q16236+O15525); assay: Inhibition of human Nrf2/MafG heterodimerization expressed in Escherichia coli Rosetta (DE3) by Split-luciferase assay; conditions: dose 1.56-100 µM
[7] = target: T1, Nuclear factor erythroid 2-related factor 2 (Homo sapiens) (UniProt Q16236); assay: Inhibition of Nrf2 transcriptional activity in human A549 cells assessed as reduction in glutathione level at 50 to 100 uM incubated for 24 hrs by GSH-Glo glutathione assay; format: cell-based; conditions: dose 50-100 µM
T1 sequence (whole entry): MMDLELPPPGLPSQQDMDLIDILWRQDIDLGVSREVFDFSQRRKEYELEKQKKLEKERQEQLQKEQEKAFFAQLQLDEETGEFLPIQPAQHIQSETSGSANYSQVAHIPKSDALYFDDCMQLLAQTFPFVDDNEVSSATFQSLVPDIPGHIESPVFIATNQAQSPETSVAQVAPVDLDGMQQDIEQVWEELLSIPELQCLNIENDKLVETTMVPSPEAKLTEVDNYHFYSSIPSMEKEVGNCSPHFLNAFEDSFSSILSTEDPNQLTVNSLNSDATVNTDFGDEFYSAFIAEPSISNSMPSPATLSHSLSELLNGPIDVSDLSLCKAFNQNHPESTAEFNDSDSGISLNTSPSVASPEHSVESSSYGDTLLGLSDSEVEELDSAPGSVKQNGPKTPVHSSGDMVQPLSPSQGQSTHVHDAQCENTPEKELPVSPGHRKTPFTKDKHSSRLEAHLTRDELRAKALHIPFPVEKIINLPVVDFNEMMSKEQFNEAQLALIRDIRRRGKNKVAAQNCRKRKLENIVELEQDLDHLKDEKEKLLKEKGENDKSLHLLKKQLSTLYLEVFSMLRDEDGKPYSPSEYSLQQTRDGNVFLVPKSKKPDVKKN

A549 [8] = assay: Synergistic antiproliferative activity against human A549 cells assessed as cell death at 25 uM incubated for 72 hrs in presence of 12 uM cisplatin by MTT assay (reference value: 66%); format: functional
A549 [9] = assay: Downregulation of HMOX1 mRNA level in human A549 cells at 50 uM incubated for 72 hrs by qPCR assay; format: functional, cell-based
A549 [10] = assay: Synergistic antiproliferative activity against human A549 cells assessed as cell death at 6.25 uM incubated for 72 hrs in presence of 12 uM cisplatin by MTT assay (reference value: 66%); format: functional
A549 [11] = assay: Antiproliferative activity against human A549 cells assessed as cell death at 12.5 uM incubated for 72 hrs by MTT assay relative to control; format: functional
A549 [12] = assay: Synergistic antiproliferative activity against human A549 cells assessed as cell death at 3.125 uM incubated for 72 hrs in presence of 6 uM cisplatin by MTT assay (reference value: 46%); format: functional
A549 [13] = assay: Synergistic antiproliferative activity against human A549 cells assessed as combination index at 50 uM incubated for 72 hrs in presence of 12 uM cisplatin by Chou-Talalay method; format: functional
A549 [14] = assay: Synergistic antiproliferative activity against human A549 cells assessed as cell death at 100 uM incubated for 72 hrs in presence of 6 uM cisplatin by MTT assay (reference value: 46%); format: functional
A549 [15] = assay: Synergistic antiproliferative activity against human A549 cells assessed as cell death at 1.563 uM incubated for 72 hrs in presence of 6 uM cisplatin by MTT assay (reference value: 46%); format: functional
A549 [16] = assay: Synergistic antiproliferative activity against human A549 cells assessed as cell death at 12.5 uM incubated for 72 hrs in presence of 12 uM cisplatin by MTT assay (reference value: 66%); format: functional

`CC[C@H](C)[C@H](NC(C)=O)C(=O)N[C@H](C(=O)N[C@@H](CCC(=O)O)C(=O)N[C@@H](CC(C)C)C(=O)N[C@@H](CCC(=O)O)C(=O)N[C@]1(C)CCC/C=C\CCC[C@](C)(C(=O)N[C@@H](CC(C)C)C(=O)N[C@@H](CCCCN)C(=O)N[C@@H](CC(=O)O)C(=O)N[C@@H](CCC(=O)O)C(=O)N[C@@H](CCCCN)C(=O)N[C@@H](CCC(=O)O)C(N)=O)NC(=O)[C@H](CC(=O)O)NC(=O)[C@H](CC(C)C)NC(=O)[C@H](CC(=O)O)NC1=O)C(C)C` (Ac-IVELE[R5]DLD[R5]LKDEKE-NH2; staple (Z) 6-10) gave an Activity (A549 [1]) of 17%, an Activity (A549 [2]) of 74% and an Activity (A549 [3]) of 68%. For the same molecule, the Activity (A549 [4]) was “Active”, the Activity (HEK-293T) was “Non-Toxic” and the Activity (A549 [5]) was 30%. For the same molecule, the Activity (A549 [6]) was 34%, the inhibition (NRF2-MAFG (Homo sapiens)) was “Dose-Dependent Effect” and the inhibition [7] was “Active”. For the same molecule, the Activity (A549 [8]) was 87%, the Activity (A549 [9]) was “Active” and the Activity (A549 [10]) was 79%. For the same molecule, the Activity (A549 [11]) was 24%, the Activity (A549 [12]) was 52% and the CI (A549 [13]) was 0.19. It also gave an Activity (A549 [14]) of 76%, an Activity (A549 [15]) of 50% and an Activity (A549 [16]) of 81%.
